Experimental data from patent publication US20160052926A1, “NOVEL PYRIMIDINE AND PYRIDINE COMPOUNDS AND USAGE THEREOF” (HUTCHISON MEDIPHARMA LIMITED, priority 2013, published 2016).

Experiments:
Format in all cases: biochemical
Recombinant human FGFR1 = Recombinant human FGFR1 (Homo sapiens, UniProt P11362); test: Transcreener Kinase Assay of FGFR1; settings: read-out: FGFR1 (FP) IC50
Experimental: Transcreener Kinase Assay of FGFR1
(§1) Prepare Solution • Compounds were solved in DMSO and were diluted with assay buffer to 5 folds of final concentration keeping the DMSO concentration at 5%. Further dilution are needed to make final concentrations are at 1, 0.33, 0.11, 0.037, 0.012, 0.004, 0.0014, 0.0005 μM; (the final concentration of DMSO is 1%). • Enzyme/Substrate stock Preparation: Recombinant human FGFR1 and Poly E4Y are both diluted in assay buffer.
(§2) Enzymatic Reaction • In a 96-well plate, Add 5 μL of compound or control. (positive control: 5 μL of 5% DMSO; negative control: 5 μL of 500 mM EDTA) into desired wells; • Add 10 μL of Enzyme/Substrate stock into each well; • Add 10 μL of ATP Diluents to initiate the enzyme reaction and votex the plate immediately on a plate shaker; • For the wells to make standard curve, add 5 μL of 5% DMSO, 10 μL of assay buffer and 10 μL of ATP standard curve stock. • Incubate the plate for 45 min at 28[…] on a plate shaker in a low speed.
Excitation wavelength: 610 nm, Emission wavelength: 670 nm.
(§3) • [ADP] in Compound well represents the ADP concentration in compound well. • [ADP] in Positive control well represents the ADP concentration in 5% DMSO well • Conversion of mP value to ADP concentration is calculated based on the formula which determined by standard curve. And mP value is measured by following the instruction provided by BellBrook Labs. (www.bellbrooklabs.com). 6. IC50: calculated using XL-Fit 2.0 software.

Recombinant human FGFR2 = Recombinant human FGFR2 (Homo sapiens, UniProt P21802); test: Transcreener Kinase Assay of FGFR2; settings: read-out: FGFR2 (FP) IC50
Experimental: Transcreener Kinase Assay of FGFR2
as §1, with “•” for “Prepare Solution •”, “FGFR2” for “FGFR1”, “buffer. The final concentration is 0.3 ng/μL for FGFR2 and 62.5 ng/μL for Poly E4Y. The mixture is being kept in ice before use; • Prepare ATP Diluents, 10 mM ATP is diluted in assay buffer, the final concentration is 25 μM; • Prepare ADP Diluents: diluted ADP (500 μM) in assay buffer, the final concentration is 25 μM; • Prepare ATP standard curve stock as following:” for “buffer.”
as §2, with “•” for “Enzymatic Reaction •”
• Detection Mix Preparation: The mixture is made by dilution with MilliQ water; as following: ADP Alexa633 tracer (1:100), ADP antibody (1:158), and stop & detect buffer (1:10); • Tracer Only control Preparation: The mixture is made by dilution with MilliQ water; as following: ADP Alexa633 tracer (1:100), and stop & detect buffer (1:10) • No Tracer control Preparation: stop & detect buffer is diluted with MilliQ water; by 10 fold. • Add 25 μL of detection mix, Tracer Only control and No Tracer control into corresponding wells, respectively; • Incubate at 28 °C for 1 h, on a plate shaker in a low speed; • Measure florescence polarization (FP) on TECAN F500. Excitation wavelength: 610 nm, Emission wavelength: 670 nm.
as §3

FGFR3 kinase = FGFR3 kinase (Homo sapiens, UniProt P22607); test: Z-Lyte Kinase Assay of FGFR3
Experimental: Z-Lyte Kinase Assay of FGFR3
The final concentrations are 1, 0.33, 0.11, 0.037, 0.012, 0.004, 0.0014, 0.00046 μM, and the final concentration of DMSO is 2%. • 3) Kinase/Peptide Mixture (P/K solution): Prepare Kinase/Peptide Mixture by diluting the kinase to 0.7 μg/ml and the Z-LYTE™ Tyr 4 peptide to 4 μM in 1.33× Kinase Buffer. Mix gently by pipetting. • 4) Phospho-peptide Solution (PP solution): Add 0.4 μl of Z-LYTE™ Tyr 4 Phospho-peptide to 99.6 μl of 1.33× Kinase Buffer. • 5) ATP Solution: Prepare ATP Solution by diluting the 10 mM of ATP in 1.33× Kinase Buffer to 300 uM. • 6) Development Solution: Dilute Development Reagent B with Development Buffer as 1:128.
Shake the plate for 30 Sec and centrifuge (1500 rpm, 1 min) • Seal the plate to protect from the light and incubate the plate for 1 hour at RT (25-30[…]) • 2) Development reaction • Add 5 μl of the Development solution to all wells • Shake the plate for 30 Sec and centrifuge (1500 rpm, 1 min) • Seal the plate to protect from the light and incubate the plate for 1 hour at RT (25-30[…]) • 3) Stop and read • Add 5 μl of the Stop reagent to all wells • Shake the plate for 30 Sec and centrifuge (1500 rpm, 1 min) • Measure the value of Coumarin (Ex400 nm, Em445 nm) and fluorescein (Ex400 nm, Em520 nm), respectively.
Inhibition rate(IR)=1−%Photest Cpd/%PhoC2
• determined with add-in software for Microsoft Excel, XLfit™ (version 2.0) from ID Business Solutions (Guildford, UK)

Chain of FGFR3 kinase (P22607 23-806): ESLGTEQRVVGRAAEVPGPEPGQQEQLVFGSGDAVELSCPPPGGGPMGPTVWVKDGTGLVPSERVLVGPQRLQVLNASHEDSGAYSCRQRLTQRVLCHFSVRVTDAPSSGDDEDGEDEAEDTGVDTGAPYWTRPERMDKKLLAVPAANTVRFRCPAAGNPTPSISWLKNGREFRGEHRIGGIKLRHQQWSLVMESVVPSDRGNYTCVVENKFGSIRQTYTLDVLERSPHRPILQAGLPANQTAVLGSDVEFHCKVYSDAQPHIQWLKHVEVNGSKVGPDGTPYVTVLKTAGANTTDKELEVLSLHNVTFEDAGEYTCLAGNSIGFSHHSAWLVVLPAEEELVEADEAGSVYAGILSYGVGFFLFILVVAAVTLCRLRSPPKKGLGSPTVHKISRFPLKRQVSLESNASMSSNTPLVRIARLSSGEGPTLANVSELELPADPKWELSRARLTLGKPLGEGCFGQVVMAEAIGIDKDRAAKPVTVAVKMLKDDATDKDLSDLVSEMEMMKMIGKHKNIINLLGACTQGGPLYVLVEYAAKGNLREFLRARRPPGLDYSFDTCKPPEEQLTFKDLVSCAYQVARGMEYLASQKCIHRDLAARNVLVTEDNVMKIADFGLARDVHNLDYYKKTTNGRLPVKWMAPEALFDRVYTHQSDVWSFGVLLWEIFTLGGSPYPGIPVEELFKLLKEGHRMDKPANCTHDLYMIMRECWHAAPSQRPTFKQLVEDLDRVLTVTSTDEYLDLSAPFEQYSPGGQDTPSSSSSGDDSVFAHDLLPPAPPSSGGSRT
Chain of Recombinant human FGFR1 (P11362 22-822): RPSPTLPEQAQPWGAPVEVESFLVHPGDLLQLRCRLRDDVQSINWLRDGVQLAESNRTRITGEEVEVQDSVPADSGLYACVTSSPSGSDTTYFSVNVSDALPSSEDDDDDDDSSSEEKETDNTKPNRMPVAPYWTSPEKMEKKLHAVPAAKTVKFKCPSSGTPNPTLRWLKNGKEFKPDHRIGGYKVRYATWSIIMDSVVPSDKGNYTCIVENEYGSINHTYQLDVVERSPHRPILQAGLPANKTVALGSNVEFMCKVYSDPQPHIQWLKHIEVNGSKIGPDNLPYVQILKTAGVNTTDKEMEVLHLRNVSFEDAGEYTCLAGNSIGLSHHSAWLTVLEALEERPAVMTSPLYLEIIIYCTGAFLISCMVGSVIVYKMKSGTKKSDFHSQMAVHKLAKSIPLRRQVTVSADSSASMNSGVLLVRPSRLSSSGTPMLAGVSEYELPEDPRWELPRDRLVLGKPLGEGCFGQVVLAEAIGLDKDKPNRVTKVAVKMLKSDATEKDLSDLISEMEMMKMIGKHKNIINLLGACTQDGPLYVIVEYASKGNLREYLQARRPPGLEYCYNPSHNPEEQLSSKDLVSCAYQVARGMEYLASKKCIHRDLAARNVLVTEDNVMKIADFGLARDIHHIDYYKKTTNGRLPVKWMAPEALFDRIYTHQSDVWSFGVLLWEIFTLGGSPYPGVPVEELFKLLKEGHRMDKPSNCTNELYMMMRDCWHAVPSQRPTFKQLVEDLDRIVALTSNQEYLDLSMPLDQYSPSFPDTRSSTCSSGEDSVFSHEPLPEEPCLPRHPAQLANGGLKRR
Chain of Recombinant human FGFR2 (P21802 22-821): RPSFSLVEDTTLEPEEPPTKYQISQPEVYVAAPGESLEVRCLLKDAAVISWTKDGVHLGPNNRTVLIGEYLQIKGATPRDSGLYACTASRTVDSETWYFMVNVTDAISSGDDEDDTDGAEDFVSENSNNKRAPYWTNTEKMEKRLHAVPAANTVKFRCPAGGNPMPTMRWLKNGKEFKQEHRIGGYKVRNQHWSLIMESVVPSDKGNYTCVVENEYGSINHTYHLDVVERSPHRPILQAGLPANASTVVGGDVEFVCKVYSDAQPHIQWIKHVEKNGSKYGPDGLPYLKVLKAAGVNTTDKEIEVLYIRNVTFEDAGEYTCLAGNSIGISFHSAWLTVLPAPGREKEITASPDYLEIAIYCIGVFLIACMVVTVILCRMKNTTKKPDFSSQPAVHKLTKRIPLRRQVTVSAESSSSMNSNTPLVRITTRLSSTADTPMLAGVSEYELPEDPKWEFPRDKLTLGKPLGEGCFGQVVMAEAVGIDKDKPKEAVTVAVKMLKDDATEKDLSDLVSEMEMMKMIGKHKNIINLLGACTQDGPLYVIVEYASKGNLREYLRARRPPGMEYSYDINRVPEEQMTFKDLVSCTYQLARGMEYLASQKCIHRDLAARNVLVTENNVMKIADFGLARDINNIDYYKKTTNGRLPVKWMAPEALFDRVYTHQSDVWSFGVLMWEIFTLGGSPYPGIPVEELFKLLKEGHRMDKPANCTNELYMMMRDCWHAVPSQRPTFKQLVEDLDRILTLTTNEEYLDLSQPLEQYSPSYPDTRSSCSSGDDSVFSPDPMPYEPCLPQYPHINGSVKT

Row | SMILES | IC50 (Recombinant human FGFR1) [nM] | IC50 (Recombinant human FGFR2) [nM] | IC50 (FGFR3 kinase) [nM]
1 | CCn1cc(Nc2ccc(OCc3cc(C(=O)NC)cc(OC)c3F)cn2)cn1 [Compound 187] | 271 | 132 | 227
2 | CNC(=O)c1cc(COc2cnc(Nc3ccc(CC(=O)O)cc3)nc2)c(F)c(OC)c1 [Compound 207] | 45 | 16 | 29
3 | CNC(=O)c1cc(CCc2cnc(Nc3ccc(N4C[C@@H](C)N[C@@H](C)C4)nc3)nc2)c(Cl)c(OC)c1 [Compound 214] | 10 | 11 | 17
4 | CNC(=O)c1cc(CCc2cnc(Nc3cnn(C4CNC4)c3)nc2)c(F)c(OC)c1 [Compound 160] | 15 | 10 | 16
5 | CNC(=O)c1cc(CCc2cnc(Nc3cnn(C4CCNCC4)c3)nc2)c(Cl)c(OC)c1 [Compound 158, 4-chloro-3-methoxy-N-methyl-5-(2-(2-(1-(piperidin-4-yl)-1H-pyrazol-4-ylamino)pyrimidin-5-yl)ethyl)benzamide] | 8 | 8 | 6
6 | CNC(=O)c1cc(CCc2cnc(Nc3cnn(C4CCNCC4)c3)nc2)c(F)c(OC)c1 [Compound 164] | 8 | 8 | 8
7 | CNC(=O)c1cc(CCc2cnc(Nc3c(C)nn(C)c3C)nc2)c(F)c(OC)c1 [Compound 109] | 379 | 275 | 311
8 | CCn1cnc(Nc2ncc(CCc3cc(C(=O)NC)cc(OC)c3F)cn2)c1 [Compound 28] | 360 | 245 | 347
9 | CNC(=O)c1cc(CCc2cnc(Nc3cc[n+]([O-])c(C)c3)nc2)c(F)c(OC)c1 [Compound 78, 4-((5-(2-fluoro-3-methoxy-5-(methylcarbamoyl)phenethyl)pyrimidin-2-yl)amino)-2-methylpyridine 1-oxide] | 44 | 18 | 31
10 | CNC(=O)c1cc(CCc2cnc(Nc3cnn(CC(=O)N4CCN(C)CC4)c3)nc2)c(F)c(OC)c1 [Compound 144] | 13 | 6 | 16
11 | CNC(=O)c1cc(COc2cnc(Nc3ccc(N4C[C@@H](C)N[C@@H](C)C4)c(F)c3)nc2)c(Cl)c(OC)c1 [Compound 220] | 10 | 4 | 10
12 | CNC(=O)c1cc(C#Cc2cnc(Nc3ccc(N4C[C@@H](C)N[C@@H](C)C4)cc3)nc2)c(Cl)c(OC)c1 [Compound 222, 4-chloro-3-((2-((4-((3S,5R)-3,5-dimethylpiperazin-1-yl)phenyl)amino)pyrimidin-5-yl)ethynyl)-5-methoxy-N-methylbenzamide] | 22 | 8 | 27
13 | CNC(=O)c1cc(CCc2cnc(Nc3cccc(N4C[C@@H](C)N[C@@H](C)C4)c3)nc2)cc(OC)c1 [Compound 12] | 98 | 25 | 128
14 | CCN1CCN(c2ccc(Nc3ncc(CCc4cc(OC)cc(C(=O)NOC(C)C)c4)cn3)cc2)CC1 [Compound 58] | 325 | 123 | 509
15 | CNC(=O)c1cc(CCc2cnc(Nc3cnn([C@@H]4CCNC4)c3)nc2)c(F)c(OC)c1 [Compound 161] | 17 | 9 | 12

Continued by falling IC50 (Recombinant human FGFR1), values first:

Row | IC50 (Recombinant human FGFR1) [nM] | IC50 (Recombinant human FGFR2) [nM] | IC50 (FGFR3 kinase) [nM] | SMILES
16 | 922 | 986 |  | CCN1CCN(c2ccc(Nc3ncc(CCc4cc(C(=O)NOC)cc5c4CCO5)cn3)cc2)CC1 [Compound 6]
17 | 201 | 233 | 795 | CCN1CCN(c2ccc(Nc3ncc(CCc4cc(C(=O)NC)cc5occc45)cn3)cc2)CC1 [Compound 4]
18 | 143 | 169 | 590 | CCN1CCN(c2ccc(Nc3ncc(CCc4cc(C(=O)NC5CC5)cc5occc45)cn3)cc2)CC1 [Compound 7]
19 | 119 | 27 | 690 | C#Cc1ccc(Nc2ncc(OCc3cc(C(=O)NC)cc(OC)c3F)cn2)cc1 [Compound 210]
20 | 103 | 113 | 175 | CCOc1cc(CCc2cnc(Nc3ccc(N4CCN(CC)CC4)cc3)nc2)cc(C(=O)NOC)c1 [Compound 51]
21 | 99 | 87 | 132 | CCN1CC[C@@H](n2cc(Nc3ncc(CCc4cc(C(=O)NC)cc(OC)c4F)cn3)cn2)C1 [Compound 170]
22 | 38 | 13 | 21 | CNC(=O)c1cc(CCc2cnc(Nc3ccc(CC(=O)O)cc3)nc2)c(F)c(OC)c1 [Compound 206]
23 | 34 | 11 | 40 | CNC(=O)c1cc(CCc2cnc(Nc3ccn4c(COC)nnc4c3)nc2)c(F)c(OC)c1 [Compound 73]
24 | 31 | 13 | 25 | CNC(=O)c1cc(CCc2cnc(Nc3ccn4cnnc4c3)nc2)c(F)c(OC)c1 [Compound 68]
25 | 27 | 16 | 22 | CNC(=O)c1cc(CCc2cnc(Nc3ccn4c(C)nnc4c3)nc2)c(F)c(OC)c1 [Compound 70]
26 | 17 | 10 | 14 | CNC(=O)c1cc(CCc2cnc(Nc3cnn([C@H]4CCNC4)c3)nc2)c(F)c(OC)c1 [Compound 162]
27 | 15 | 6 | 7 | CNC(=O)c1cc(COc2cnc(Nc3cnn(C4C[C@@H](C)N[C@@H](C)C4)c3)nc2)c(F)c(OC)c1 (some centres unmarked) [Compound 202]
